For assay [1], the system named is Salmonella typhi. Briefly: Antibacterial activity against Salmonella enterica subsp. enterica serovar Typhi CPC assessed as bacterial growth inhibition incubated overnight by broth microdilution assay. The assay is classed as functional. In general terms: In broth dilution the organism is exposed to a series of concentrations in liquid medium.
Assay [2] relates to Klebsiella pneumoniae. Briefly: Antibacterial activity against Klebsiella pneumoniae clinical isolate assessed as bacterial growth inhibition incubated overnight by broth microdilution assay. In kind it is functional.
Assay [3] deals with Staphylococcus aureus. Briefly: Antibacterial activity against Staphylococcus aureus ATCC43300 assessed as bacterial growth inhibition incubated overnight by broth microdilution assay. The assay is classed as functional.
For assay [4], the system named is Klebsiella pneumoniae. Description: Antibacterial activity against Klebsiella pneumoniae NR41388 assessed as bacterial growth inhibition incubated overnight by broth microdilution assay. The assay is classed as functional.
The subject of assay [5] is Staphylococcus aureus. Briefly: Antibacterial activity against Staphylococcus aureus ATCC25923 assessed as bacterial growth inhibition incubated overnight by broth microdilution assay. The assay is classed as functional.
For assay [6], the system named is Pseudomonas aeruginosa. Briefly: Antibacterial activity against Pseudomonas aeruginosa HM801 assessed as bacterial growth inhibition incubated overnight by broth microdilution assay. The assay is classed as functional.
For assay [7], the system named is KB 3-1. Briefly: Cytotoxicity against human KB 3-1 cells assessed as reduction in cell viability. The assay is classed as functional, cell-based.
A short description of assay [8]: Antioxidant activity assessed as inhibition of ABTS radical scavenging activity measured upto 6 mins. In kind it is functional.
Assay [9] concerns Salmonella enterica. Description: Antibacterial activity against Salmonella enterica NR13555 assessed as bacterial growth inhibition incubated overnight by broth microdilution assay. In kind it is functional.

≈ marks a conversion by molar mass, not a printed value.

As to `CCCCOC1OC(=O)c2cc3ccc4c(c3c(-c3ccc5c(c3)OCO5)c21)OCO4` (stereo not drawn), the MIC in assay [1] worked out at 500 µg/mL (≈ 1190 µM); in assay [2] it was 500 µg/mL (≈ 1190 µM); in assay [3], 125 µg/mL (≈ 297 µM); in [4] it was 500 µg/mL (≈ 1190 µM); in assay [5], 500 µg/mL (≈ 1190 µM); in [6], 250 µg/mL (≈ 595 µM).

In the case of `COc1ccc(C[C@H]2NC(=O)/C=C/C[C@@H]([C@H](C)[C@H]3O[C@@H]3c3ccccc3)OC(=O)[C@H](CC(C)C)OC(=O)C(C)(C)CNC2=O)cc1Cl` [CRYPTOPHYCIN 52], in assay [7], the IC50 is 1.3e-05 µM.

Regarding `COC(=O)c1cc2ccc3c(c2c2c1C(=O)c1cc(O)c(O)cc1-2)OCO3`, the IC50 was 84.5 µM in [8] and 9.5 µM in assay [7]. In assay [9], the MIC is 250 µg/mL (≈ 686 µM).

For the compound GENTAMICIN, the MIC in assay [1] was found to be 0.05 µg/mL; in assay [2], 0.03 µg/mL; in assay [3], 0.07 µg/mL; in assay [4], 0.07 µg/mL; in assay [5] it was 0.03 µg/mL; in assay [6], 0.05 µg/mL. For the same compound, the MIC in assay [9] turned out to be 0.07 µg/mL.

In the case of `COC1OC(=O)c2cc3ccc4c(c3c(-c3ccc(O)c(O)c3)c21)OCO4` (stereo not drawn), the MIC was 31.3 µg/mL (≈ 85.4 µM) in assay [1]; 62.5 µg/mL (≈ 171 µM) in [2]; 62.5 µg/mL (≈ 171 µM) in assay [3]; 62.5 µg/mL (≈ 171 µM) in assay [4]; 62.5 µg/mL (≈ 171 µM) in [5]; 31.3 µg/mL (≈ 85.4 µM) in assay [6]. The MIC in [9] stood at 62.5 µg/mL (≈ 171 µM). In assay [7], the IC50 is 4.1 µM.

Regarding `COc1cc([C@@H](O)[C@@H]2CO[C@H](c3ccc(O)c(OC)c3)[C@H]2CO)ccc1O` [TANEGOOL], the MIC was determined as 31.3 µg/mL (≈ 83.2 µM) in [1]; 62.5 µg/mL (≈ 166 µM) in assay [2]; 125 µg/mL (≈ 332 µM) in assay [3]; 500 µg/mL (≈ 1330 µM) in assay [4]; 500 µg/mL (≈ 1330 µM) in [5]; 15.6 µg/mL (≈ 41.4 µM) in assay [6]. Besides, the MIC in [9] was 250 µg/mL (≈ 664 µM). Further, in assay [8], the IC50 was 41.2 µM.

Consider `Cc1c(C)c2c(c(C)c1O)CCC(C)(C(=O)O)O2` (stereo not drawn) [TROLOX], for which the IC50 in assay [8] was 68 µM.

With `C=CCOC(=O)c1cc2ccc3c(c2c(-c2ccc4c(c2)OCO4)c1C=O)OCO3`, the MIC amounted to 500 µg/mL (≈ 1240 µM) in assay [1], 500 µg/mL (≈ 1240 µM) in [2], 500 µg/mL (≈ 1240 µM) in assay [3] and 125 µg/mL (≈ 309 µM) in [6].

Broadly, the MIC is the smallest concentration in the dilution series that meets the test's criterion for growth inhibition. As a reminder, the IC50 is the concentration needed to halve the response being measured.

The values above are taken from ChEMBL document CHEMBL5215008, “Bioactive Arylnaphthalide Lignans from Justicia depauperata” (J Nat Prod, 2022).
